Measurements reported in patent US7312236B2, “Substituted (4-aminocyclohexen-1-yl)phenyl and (4-aminocyclohexen-1-yl)pyridinyl compounds as 5-HT1F agonists” (Eli Lilly and Company, priority 2004, dated 2007).
pEC50: −log10 of the molar value.

Key:
[1] = system: dural protein extravasation; test: Dural protein extravasation assay (trigeminal ganglion stimulation); design: species or system rats or guinea pigs; settings: in vivo
Protocol: The inhibition of dural protein extravasation is a functional assay for the neuronal mechanism of migraine. A compound's ability to inhibit dural protein extravasation can be tested as described in the following assay.
Anesthetize Harlan Sprague-Dawley rats (225-325 g) or guinea pigs from Charles River Laboratories (225-325 g) with sodium pentobarbital (intraperitoneal injection, 65 mg/kg or 45 mg/kg, respectively). For each animal, place the animal in a stereotaxic frame (David Kopf Instruments) with the incisor bar set at −3.5 mm for rats or −4.0 mm for guinea pigs. […]
Quantify the amount of Evans Blue dye in each sample using a fluorescence microscope (Zeiss) equipped with a grating monochronomator, a spectrophotometer, a computer-driven motorized stage, and an interface to a personal computer. For each dural membrane sample, measure fluorescence at 25 points (500 μm steps covering a 2.5×2.5 mm square area) using an excitation wavelength of approximately 535 nm and measuring the emission intensity at a wavelength of 600 nm. Determined the mean and standard deviation of these measurements. […]

rabbit saphenous vein = test: Rabbit saphenous vein contraction; settings: Oryctolagus cuniculus
Protocol: Bend the tips of two 30-gauge stainless steel hypodermic needles into an L-shape and slip them into the lumen of the polyethylene tubing. Gently push vein tissue from the cannula onto the needles. Separate the needles and attach the lower needle with thread to a stationary glass rod and the upper needle with thread to a force transducer (Statham UC-3). Mount the tissues in organ baths containing 10 mL of modified Krebs' solution. Maintain tissue bath solutions at 37° C. and […] […] Apply an initial optimum resting force of 4 grams to the vein tissue. Record isometric contractions as changes in grams of force on a Beckman Dynograph with Statham UC-3 transducers and microscale accessory attachments. […] Flush the bath, allow the tissue to re-equilibrate under a 4 gram force, add test compound and record the force of contraction. Add additional compound to achieve the next concentration in a range of compound concentrations to generate cumulative agonist concentration-response curves for each test compound. Tissues can be used to generate up to two agonist concentration-response curves. […] Two important parameters can be measured with this vasoconstriction assay, saphenous vein contraction (EC50) and maximal contraction as a percentage of the maximal KCl response (%max KCl).

pEC50 (rabbit saphenous vein): 6.18
Compound: CNS(=O)(=O)Cc1ccc2[nH]cc(CCN(C)C)c2c1 [sumatriptan]
extravasation inhibition ID50 [1]: 2.6e-08 mmol/kg
